Results from patent US10080742B2, “Isoxazole derivatives as FXR agonists and methods of use thereof” (Enanta Pharmaceuticals, Inc., priority 2016, dated 2018).

Target: T1, human FXR (NR1H4) (Homo sapiens, UniProt Q96RI1)
T1 construct: host or cells: CHO (Chinese hamster ovary) reporter cells
T1 sequence (Q96RI1 1-486): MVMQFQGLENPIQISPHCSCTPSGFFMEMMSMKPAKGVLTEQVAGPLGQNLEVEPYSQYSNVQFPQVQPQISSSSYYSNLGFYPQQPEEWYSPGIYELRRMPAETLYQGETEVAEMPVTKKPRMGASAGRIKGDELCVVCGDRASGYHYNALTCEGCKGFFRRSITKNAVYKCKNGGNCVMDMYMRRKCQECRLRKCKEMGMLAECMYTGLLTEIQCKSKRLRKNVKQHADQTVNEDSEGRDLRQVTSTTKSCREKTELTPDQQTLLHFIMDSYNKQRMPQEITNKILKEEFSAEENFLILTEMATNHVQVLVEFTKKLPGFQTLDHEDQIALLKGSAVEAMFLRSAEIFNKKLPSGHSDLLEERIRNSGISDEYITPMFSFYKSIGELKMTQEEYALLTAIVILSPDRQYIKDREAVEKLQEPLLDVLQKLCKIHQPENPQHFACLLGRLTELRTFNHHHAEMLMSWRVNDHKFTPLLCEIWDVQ
Assay: Human FXR (NR1H4) Assay (Gal4 promoter driven luciferase reporter, CHO cells)
Assay type: cell-based
Conditions: for EC50: FXR reporter assay in CHO cells expressing human NR1H4, 22 hours incubation, potency ranges; for Efficacy (%): normalized to CDCA set as 100%, FXR reporter assay in CHO cells
Source text: Human FXR (NR1H4) Assay Determination of a ligand mediated Gal4 promoter driven transactivation to quantify ligand binding mediated activation of FXR. FXR Reporter Assay kit purchased from Indigo Bioscience (Catalogue number: IB00601) to determine the potency and efficacy of compound developed by Enanta that can induce FXR activation. The principle application of this reporter assay system is to quantify functional activity of human FXR. The assay utilizes non-human mammalian cells, CHO (Chinese hamster ovary) cells engineered to express human NR1H4 protein (referred to as FXR). Reporter cells also incorporate the cDNA encoding beetle luciferase which catalyzes the substrates and yields photon emission. Luminescence intensity of the reaction is quantified using a plate-reading luminometer, Envision. Reporter Cells include the luciferase reporter gene functionally linked to an FXR responsive promoter. Thus, quantifying changes in luciferase expression in the treated reporter cells provides a sensitive surrogate measure of the changes in FXR activity. […] The assay is according to the manufacturer's instructions. In brief, the assay was performed in white, 96 well plates using final volume of 100 ul containing cells with different doses of compounds. Retrieve Reporter Cells from −80° C. storage. Perform a rapid thaw of the frozen cells by transferring a 10 ml volume of 37° C. cell recovery medium into the tube of frozen cells. Recap the tube of Reporter Cells and immediately place it in a 37° C. water bath for 5-10 minutes. Retrieve the tube of Reporter Cell Suspension from the water bath. Sanitize the outside surface of the tube with a 70% alcohol swab, and then transfer it into the cell culture hood. Dispense 90 μl of cell suspension into each well of the 96-well Assay Plate. Transfer the plate into 37° C. incubator, allowing the cells adherent to the bottom of the well. Dilute compounds in Dilution Plate (DP), and administrate to cells at Assay Plate (AP). DMSO content of the samples was kept at 0.2%. Cells were incubated for additional 22 hours before luciferase activities were measured. Thirty minutes before intending to quantify FXR activity, remove Detection Substrate and Detection Buffer from the refrigerator and place them in a low-light area so that they may equilibrate to room temperature. Remove the plate's lid and discard all media contents by ejecting it into an appropriate waste container. Gently tap the inverted plate onto a clean absorbent paper towel to remove residual droplets. Cells will remain tightly adhered to well bottoms. Add 100 μl of luciferase detection reagent to each well of the assay plate. Allow the assay plate to rest at room temperature for at least 5 minutes following the addition of LDR. Set the instrument (Envision) to perform a single 5 second “plate shake” prior to reading the first assay well. Read time may be 0.5 second (500 mSec) per well.

SMILES	EC50 [nM]	Efficacy (%)
O=C(O)c1ccc2nc(N3CCC(OCc4c(-c5c(Cl)cccc5Cl)noc4C4CC4)CC3)sc2c1 [Compound (1), reference compound]	< 100	304
O=C(NS(=O)(=O)C1CC1)c1ccc2nc(N3CCC(OCc4c(-c5c(Cl)cccc5Cl)noc4C4CC4)CC3)sc2c1 [Example 11]	100 to 1000	122
CN(C)S(=O)(=O)NC(=O)c1ccc2nc(N3CCC(OCc4c(-c5c(Cl)cccc5Cl)noc4C4CC4)CC3)sc2c1 [Example 26]	< 100	129
